Each structure is given as a SMILES string.

Data on one molecule can be found in US20260337125A1, “RADIOLABELED TYROSINE DERIVATIVE AND APPLICATION THEREOF” (Osaka University, priority 2022, published 2026).

One series concerns the target HEK293-hLAT1 (Homo sapiens, UniProt Q01650). In words: Cellular uptake test (Using HEK293). The format is cell-based. How it is done: • Cells to be Used: HEK293-Mock, HEK293-hLAT1, HEK293-hLAT2 (HEK293: Human Embryonic Kidney cells 293) • Culture medium to be used: E-MEM (containing 10% FBS, 1% P/S, 1% NEAA)
Two days before a test day, a cell suspension was prepared in such a manner that the concentration of predetermined cells was 1×10^5 cells/mL. The cell suspension was seeded in a 24-well multiculture plate at a volume of 0.5 mL per well. On the day of the test, cultures were confirmed to be subconfluent (which refers to a state where 70-80% of the well is covered in density). The cells were washed twice with warmed PBS(-) Buffer (166-23555, FUJIFILM Wako Pure Chemical Corporation), the culture medium was replaced with HBSS(-) Buffer (085-09355, FUJIFILM Wako Pure Chemical Corporation), and the plate was left to stand in an incubator (MINIcell-35, WakenBtech Co., Ltd) until an RI addition test.
^211At-AAMT-OMe or ^211At-AAMT was added to the prepared cells at 10 μL/well. BCH (LAT1 inhibitor, 20 mM) or unlabeled AMT (α-methyl tyrosine, 1 μg/mL) was previously (15 minutes before) added ([…]). The cells were cultured (CO2 5%, 37 °C), and after 30 minutes, the liquid was removed by suction using an aspirator. The cells were washed twice with PBS(-). The cells were lysed by adding 0.1N NaOH to obtain a lysate, and the radioactivity of the lysate was measured using a γ counter. After the radioactivity measurement, the lysate was loaded into a 96-well plate at a volume of 10 μL per well, the protein amount was measured by the BCA method, and the number of cells was corrected based on the protein amount. Absorbance was measured by MultiScanFC (Thermo Fisher). The uptake level of ^211At-AAMT-OMe or ^211At-AAMT into the cells (number of radioactivity counts/protein amount) was calculated.

A further series deals with A549. In words: Therapeutic test on mice subcutaneously transplanted with A549. The format is in vivo, human (A549) in Balb/c-nu/nu mice. Conditions: A549 tumor weight 30 days after administration, 0.5 MBq/0.2 mL per mouse, tail vein.
Series [1] concerns human pancreatic cancer cell line (PANC1). It is filed as in vivo, human (PANC1) in Balb/c-nu/nu mice. As to conditions: 1 MBq/0.2 mL per mouse, tail vein. The text has this: The experiment was terminated 21 days after administration.
Series [2] shares this test system. Put plainly: Imaging of mice subcutaneously transplanted with human pancreatic cancer cell line PANC1. It is filed as in vivo, human (PANC1) in Balb/c-nu/nu mice. Conditions: 2 hours after administration, 0.5 MBq/0.2 mL per mouse, tail vein.
Excerpt: Immunodeficient mice (Balb/c-nu/nu, 5-week-old, male) were habituated for 1 week and then subcutaneously transplanted with a human pancreatic cancer cell line (PANC1, 1×10^7 cells/mouse). After the transplantation, the mice were observed over time until tumor reached a size large enough for imaging (about 1000 mm^3). […] Two hours after administration, the mice were anesthetized by isoflurane inhalation, and planar images were taken using a γ camera (E-cam, Siemens).
Series [3] can be described thus: TLC analysis of stability after purification. Conditions: 24 hours after purification, in sodium ascorbate aqueous solution (final concentration 1%). The format is physicochemical. How it is done: The crude product solution (1 μL) was analyzed by thin-layer chromatography (TLC). The sample was spotted on a thin-layer plate (silica gel 60F254), and a mixed solvent of acetonitrile/water (2/1) was used as a developing solvent. The thin-layer plate was exposed to an imaging plate (BAS IP MS 2025E, GE Healthcare) for about 15 min, and then analyzed by a bioimage analyzer (Tyhoon™ FLA-7000, Cytiva). The results are shown in FIG. 2. ^211At-AAMT-OMe in the crude product solution was detected at Rf 0.80, and the radiochemical yield (RCY) was 81.3%.
(§1) The crude product solution was injected into an HLB column (Oasis, WAT-186005125) equilibrated with sterile distilled water (1 mL) to capture the target product in the cartridge, and sterile distilled water was passed through the cartridge to elute impurities. Next, 30% ethanol solution (500 μL) was passed through the cartridge to elute the target product into sodium ascorbate aqueous solution (500 μL, final concentration 1%), thus obtaining the purified product. The radiochemical yield and radiochemical purity of the purified product were 81% and 98%, respectively.
Before purification, immediately after production, 3 hours after production, and 24 hours after production, ^211At-AAMT-OMe was analyzed by thin-layer chromatography (TLC) in the same manner as described above.
as §1, with “product. This purified product was analyzed by thin-layer chromatography (TLC) in the same manner as described above.” for “product.”, “79.6%” for “81%”, “99.9%,” for “98%,”
24 hours after production, (R)-^211At-AAMT-OMe was analyzed by thin-layer chromatography (TLC) in the same manner as described above.
as §1, with “product. This purified product was analyzed by thin-layer chromatography (TLC) in the same manner as described above.” for “product.”, “75.9%” for “81%”, “99.27%,” for “98%,”
24 hours after production, ^211At-AAMT-OEt was analyzed by thin-layer chromatography (TLC) in the same manner as described above.
The crude product solution was injected into an HLB column (Oasis, WAT-186005125) equilibrated with sterile distilled water (1 mL) to capture the target product in the cartridge, and sterile distilled water was passed through the cartridge to elute impurities. […] This purified product was analyzed by thin-layer chromatography (TLC) in the same manner as described above. […]
24 hours after production, ^211At-AAMT-OPr was analyzed by thin-layer chromatography (TLC) in the same manner as described above. […]

Sequence of HEK293-hLAT1 (Q01650 whole entry): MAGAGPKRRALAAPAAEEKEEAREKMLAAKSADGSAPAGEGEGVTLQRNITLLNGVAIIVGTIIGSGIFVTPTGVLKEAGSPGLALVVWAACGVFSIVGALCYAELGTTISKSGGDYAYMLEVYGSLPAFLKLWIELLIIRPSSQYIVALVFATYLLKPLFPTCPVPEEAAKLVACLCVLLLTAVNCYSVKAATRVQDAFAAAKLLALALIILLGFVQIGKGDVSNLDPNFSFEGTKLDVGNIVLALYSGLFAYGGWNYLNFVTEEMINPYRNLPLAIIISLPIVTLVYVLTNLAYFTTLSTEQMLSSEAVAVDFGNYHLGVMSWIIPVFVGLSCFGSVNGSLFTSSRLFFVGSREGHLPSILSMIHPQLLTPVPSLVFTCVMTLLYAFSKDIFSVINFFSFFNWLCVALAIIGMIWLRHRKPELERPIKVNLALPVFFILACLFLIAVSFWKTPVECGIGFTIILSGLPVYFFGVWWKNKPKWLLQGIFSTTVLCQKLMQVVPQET
Sequence of HEK293-hLAT1 (P08195 102-630 partner): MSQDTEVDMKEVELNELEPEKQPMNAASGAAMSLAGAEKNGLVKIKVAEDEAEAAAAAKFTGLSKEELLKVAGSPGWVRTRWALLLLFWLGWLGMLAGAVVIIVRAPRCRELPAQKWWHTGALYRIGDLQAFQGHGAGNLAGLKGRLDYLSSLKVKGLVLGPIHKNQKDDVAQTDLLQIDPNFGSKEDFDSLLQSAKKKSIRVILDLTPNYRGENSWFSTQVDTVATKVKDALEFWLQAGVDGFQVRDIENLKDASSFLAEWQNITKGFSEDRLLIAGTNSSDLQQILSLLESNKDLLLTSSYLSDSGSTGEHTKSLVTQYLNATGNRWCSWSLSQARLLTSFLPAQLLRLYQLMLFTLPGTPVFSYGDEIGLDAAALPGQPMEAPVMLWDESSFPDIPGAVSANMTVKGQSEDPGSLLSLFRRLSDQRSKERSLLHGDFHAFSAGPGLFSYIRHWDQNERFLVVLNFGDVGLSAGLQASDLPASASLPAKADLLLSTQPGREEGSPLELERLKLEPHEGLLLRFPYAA
Description for A549: Immunodeficient mice (Balb/c-nu/nu, 5-week-old, male) were habituated for 1 week and then subcutaneously transplanted with A549 or CDDP-resistant A549 (A549 CDDP-r) (1×10^7 cells/mouse). The mice were observed over time until engraftment of tumors was confirmed (50 to 100 mm^3), and when the tumors reached a predetermined size, ^211At-AAMT-OMe or ^211At-AAMT diluted with water for injection to 0.5 MBq/0.2 mL per mouse was administered via tail vein. Thirty days after administration, the mice were euthanized and tumor masses were isolated. After fat tissue and the like were trimmed off, the wet weights of the isolated tumor masses were measured to make a histogram.

For the molecule `COc1ccc(C[C@](C)(N)C(=O)O)cc1[At]` [^211At-AAMT-OMe, (S)-3-astato(^211At)-O-methyl-α-methyltyrosine], the “uptake level into cells (number of radioactivity counts/protein amount)” value on HEK293-hLAT1 (HEK293-hLAT1 cells (CTL), 30 minutes, 37 °C) was “strongly taken up into HEK293-hLAT1 cells (CTL), comparable to ^211At-AAMT”. The specificity of uptake entry on HEK293-hLAT1 (HEK293-hLAT1 cells, without and with BCH or AMT) is listed as “specifically taken up into HEK293-hLAT1 cells”. Further, the anti-tumor effect entry in the series on A549 was “comparable to that of ^211At-AAMT on A549”. For the same molecule, in series [1] (21 days), the apparent toxicity entry is recorded as “apparent toxicity induced by their administration was not observed” and the “lesions other than tumor at autopsy” value is reported as “lesions other than tumor were not observed”. For the same molecule, the mouse body weight entry in series [1] (up to 21 days after administration) is “gently increased”. Moreover, in series [2], the “accumulation in tumor site (planar γ camera image)” value is “accumulated in the tumor sites, with a larger amount of ^211At-AAMT-OMe remaining in the tumor”. The “decomposition by TLC” value in series [3] is “no decomposition”.
